Test results as given in PMC6409085, “Three odorant-binding proteins are involved in the behavioral response of Sogatella furcifera to rice plant volatiles” (PeerJ, 2019).
Several values for one entry are separate records, joined by “and”; a condition that tells them apart may be missing. Equal values may be shown once.

Assays:
Test in all cases: biochemical
Type in all cases: binding
SfurOBP3 = SfurOBP3 (Sogatella furcifera, UniProt V5T818); conditions: for Fluorescence competitive binding assay, fluorescence intensity: OBP3, three replicate columns
SfurOBP3, sequence (V5T818 entry or part of it): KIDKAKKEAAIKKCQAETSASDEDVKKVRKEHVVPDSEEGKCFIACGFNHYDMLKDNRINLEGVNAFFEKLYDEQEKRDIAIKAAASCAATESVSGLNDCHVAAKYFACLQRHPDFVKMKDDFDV
Experimental: (§1) Thirty-six rice odorants ([He et al., 2014]; [Wang et al., 2017]) and 1-N-phenyl-naphthylamine (1-NPN) were purchased from Sigma-Aldrich (St Louis, MO, USA). These odorants and 1-NPN were dissolved in high-performance liquid chromatography (HPLC) purify grade methanol for 1.0 mM as work solution.
(§2) Fluorescence competitive binding assays were performed on Tecan Spark 10M (Tecan Group Ltd., Männedorf, Switzerland) with the F96 Black ELIAS Plate (Sangon) ([Khuhro et al., 2017]; [Liu et al., 2017]). The solutions were excited at 337 nm and emission spectra were recorded between 390 and 490 nm. First, to test the binding constants of 1-NPN to the SfurOBPs, a 2.0 µM solution of protein in 50 mM Tris-HCl (pH = 7.4) was titrated with 1 mM 1-NPN to achieve virous concentrations. Next, the competitive binding of each odorant was measured using the 1-NPN as fluorescent reporter and odorant as competitor. The concentrations of protein and 1-NPN were both 2.0 µM, the odorant added after protein and 1-NPN added into the well of ELIAS Plate for 2 min. The final concentrations of each competitor were 2, 4, 6, 8, 10, 12, 14, 16, 18 and 20 µM. After 2 min of odorant added, the fluorescence intensity was measured and recorded. The volume of mixed solution in each well was maintained at 250 µL. Each interaction was performed in triplicates.
(§3) GraphPad Prism 7.0 software (GraphPad Software, Inc., La Jolla, CA, USA) was used to calculated and generated the binding constants (K1−NPN) of 1-NPN to SfurOBPs and relative Scatchard plots ([Ban et al., 2003]; [Li et al., 2016]). Dissociation constant (Ki) of each odorant to SfurOBP was computed from the corresponding IC50 value (the half maximal inhibitory concentration), using the following equation: Ki=[IC50]/(1 + [1-NPN]/K1−NPN), where [1-NPN] is the free concentration of 1-NPN and K1−NPN is the dissociation constant of the complex protein/1-NPN.

SfurOBP1 = SfurOBP1 (Sogatella furcifera, UniProt V5T8N5); conditions: for Fluorescence competitive binding assay, fluorescence intensity: OBP1, three replicate columns
SfurOBP1, sequence (V5T8N5 entry or part of it): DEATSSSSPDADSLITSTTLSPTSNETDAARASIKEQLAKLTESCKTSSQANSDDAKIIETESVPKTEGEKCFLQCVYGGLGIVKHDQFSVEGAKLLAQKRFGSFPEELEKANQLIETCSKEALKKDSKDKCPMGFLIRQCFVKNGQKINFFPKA
Experimental: as §1, §2, §3

SfurOBP11 = SfurOBP11 (Sogatella furcifera, UniProt V5T6E3)
SfurOBP11, sequence (V5T6E3 entry or part of it): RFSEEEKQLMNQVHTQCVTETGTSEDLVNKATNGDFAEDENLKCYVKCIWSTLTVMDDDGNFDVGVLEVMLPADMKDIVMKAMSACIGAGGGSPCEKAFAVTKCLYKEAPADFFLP
Experimental: as §1, §2, §3

SfurOBP2 = SfurOBP2 (Sogatella furcifera, UniProt V5T759)
SfurOBP2, sequence (V5T759 entry or part of it): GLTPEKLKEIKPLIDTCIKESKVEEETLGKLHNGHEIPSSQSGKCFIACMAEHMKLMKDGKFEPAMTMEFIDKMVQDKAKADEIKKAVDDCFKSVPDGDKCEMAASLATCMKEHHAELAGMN
Experimental: as §1, §2, §3

With `c1ccc2ccccc2c1` [naphthalene] the IC50 (SfurOBP3) was > 20 µM, the “Fluorescence competitive binding assay, fluorescence intensity” value (SfurOBP3; ligand concentration 2) was 99229 and 86961 and 92264 and the “Fluorescence competitive binding assay, fluorescence intensity” value (SfurOBP3; ligand concentration 4) was 97193 and 95605 and 87600. For the same compound, the “Fluorescence competitive binding assay, fluorescence intensity” value (SfurOBP3; ligand concentration 6) was 102900 and 102445 and 98166, the “Fluorescence competitive binding assay, fluorescence intensity” value (SfurOBP3; ligand concentration 8) was 100522 and 107674 and 104095 and the “Fluorescence competitive binding assay, fluorescence intensity” value (SfurOBP3; ligand concentration 10) was 49630 and 50618 and 48648. The “Fluorescence competitive binding assay, fluorescence intensity” value (SfurOBP3; ligand concentration 12) was 46251 and 47333 and 45186, the “Fluorescence competitive binding assay, fluorescence intensity” value (SfurOBP3; ligand concentration 14) was 39681 and 44579 and 42492 and the “Fluorescence competitive binding assay, fluorescence intensity” value (SfurOBP3; ligand concentration 16) was 42940 and 41521 and 40287. The “Fluorescence competitive binding assay, fluorescence intensity” value (SfurOBP3; ligand concentration 18) was 51522 and 51973 and 51748, the “Fluorescence competitive binding assay, fluorescence intensity” value (SfurOBP3; ligand concentration 20) was 50731 and 60428 and 55580 and the IC50 (SfurOBP1) was > 20 µM. For the same compound, the “Fluorescence competitive binding assay, fluorescence intensity” value (SfurOBP1; ligand concentration 2 (μM)) was 5483 and 5608 and 5501, the “Fluorescence competitive binding assay, fluorescence intensity” value (SfurOBP1; ligand concentration 4 (μM)) was 5830 and 5745 and 5659 and the “Fluorescence competitive binding assay, fluorescence intensity” value (SfurOBP1; ligand concentration 6 (μM)) was 5799 and 5826 and 5942. For the same compound, the “Fluorescence competitive binding assay, fluorescence intensity” value (SfurOBP1; ligand concentration 8 (μM)) was 6002 and 5983 and 5964, the “Fluorescence competitive binding assay, fluorescence intensity” value (SfurOBP1; ligand concentration 10 (μM)) was 5834 and 6388 and 6102 and the “Fluorescence competitive binding assay, fluorescence intensity” value (SfurOBP1; ligand concentration 12 (μM)) was 6285 and 6121 and 6209. For the same compound, the “Fluorescence competitive binding assay, fluorescence intensity” value (SfurOBP1; ligand concentration 14 (μM)) was 6231 and 6194 and 6297, the “Fluorescence competitive binding assay, fluorescence intensity” value (SfurOBP1; ligand concentration 16 (μM)) was 6398 and 6743 and 6035 and the “Fluorescence competitive binding assay, fluorescence intensity” value (SfurOBP1; ligand concentration 18 (μM)) was 6548 and 7178 and 7195. The “Fluorescence competitive binding assay, fluorescence intensity” value (SfurOBP1; ligand concentration 20 (μM)) was 7389 and 7177 and 6994, the IC50 (SfurOBP11) was > 20 µM and the “Fluorescence intensity, fluorescence competitive binding assay, OBP11” value (“Fluorescence intensity … OBP11” for short) (SfurOBP11; ligand concentration 2, replicate 1) was 34403. For the same compound, the “Fluorescence intensity … OBP11” value (SfurOBP11; ligand concentration 2, replicate 2) was 32473, the “Fluorescence intensity … OBP11” value (SfurOBP11; ligand concentration 2, replicate 3) was 34898 and the “Fluorescence intensity … OBP11” value (SfurOBP11; ligand concentration 4, replicate 1) was 34130. The “Fluorescence intensity … OBP11” value (SfurOBP11; ligand concentration 4, replicate 2) was 34738, the “Fluorescence intensity … OBP11” value (SfurOBP11; ligand concentration 4, replicate 3) was 32492 and the “Fluorescence intensity … OBP11” value (SfurOBP11; ligand concentration 6, replicate 1) was 35498. For the same compound, the “Fluorescence intensity … OBP11” value (SfurOBP11; ligand concentration 6, replicate 2) was 33550, the “Fluorescence intensity … OBP11” value (SfurOBP11; ligand concentration 6, replicate 3) was 32552 and the “Fluorescence intensity … OBP11” value (SfurOBP11; ligand concentration 8, replicate 1) was 32155. The “Fluorescence intensity … OBP11” value (SfurOBP11; ligand concentration 8, replicate 2) was 35048, the “Fluorescence intensity … OBP11” value (SfurOBP11; ligand concentration 8, replicate 3) was 30051 and the “Fluorescence intensity … OBP11” value (SfurOBP11; ligand concentration 10, replicate 1) was 30839. For the same compound, the “Fluorescence intensity … OBP11” value (SfurOBP11; ligand concentration 10, replicate 2) was 29352, the “Fluorescence intensity … OBP11” value (SfurOBP11; ligand concentration 10, replicate 3) was 29736 and the “Fluorescence intensity … OBP11” value (SfurOBP11; ligand concentration 12, replicate 1) was 30215. The “Fluorescence intensity … OBP11” value (SfurOBP11; ligand concentration 12, replicate 2) was 28382, the “Fluorescence intensity … OBP11” value (SfurOBP11; ligand concentration 12, replicate 3) was 27824 and the “Fluorescence intensity … OBP11” value (SfurOBP11; ligand concentration 14, replicate 1) was 26586. For the same compound, the “Fluorescence intensity … OBP11” value (SfurOBP11; ligand concentration 14, replicate 2) was 26869, the “Fluorescence intensity … OBP11” value (SfurOBP11; ligand concentration 14, replicate 3) was 27309 and the “Fluorescence intensity … OBP11” value (SfurOBP11; ligand concentration 16, replicate 1) was 25698. For the same compound, the “Fluorescence intensity … OBP11” value (SfurOBP11; ligand concentration 16, replicate 2) was 25045, the “Fluorescence intensity … OBP11” value (SfurOBP11; ligand concentration 16, replicate 3) was 25361 and the “Fluorescence intensity … OBP11” value (SfurOBP11; ligand concentration 18, replicate 1) was 25004. The “Fluorescence intensity … OBP11” value (SfurOBP11; ligand concentration 18, replicate 2) was 25141, the “Fluorescence intensity … OBP11” value (SfurOBP11; ligand concentration 18, replicate 3) was 24946 and the “Fluorescence intensity … OBP11” value (SfurOBP11; ligand concentration 20, replicate 1) was 23792. The “Fluorescence intensity … OBP11” value (SfurOBP11; ligand concentration 20, replicate 2) was 23804, the “Fluorescence intensity … OBP11” value (SfurOBP11; ligand concentration 20, replicate 3) was 23815 and the IC50 (SfurOBP2) was > 20 µM. For the same compound, the “Fluorescence competitive binding assay, OBP2 (raw fluorescence reading)” value (SfurOBP2; ligand concentration 2 (unit not given), replicate column 1 of 3) was 21005, the “Fluorescence competitive binding assay, OBP2 (raw fluorescence reading)” value (SfurOBP2; ligand concentration 2 (unit not given), replicate column 2 of 3) was 21502 and the “Fluorescence competitive binding assay, OBP2 (raw fluorescence reading)” value (SfurOBP2; ligand concentration 2 (unit not given), replicate column 3 of 3) was 19080. For the same compound, the “Fluorescence competitive binding assay, OBP2 (raw fluorescence reading)” value (SfurOBP2; ligand concentration 4 (unit not given), replicate column 1 of 3) was 24365, the “Fluorescence competitive binding assay, OBP2 (raw fluorescence reading)” value (SfurOBP2; ligand concentration 4 (unit not given), replicate column 2 of 3) was 22710 and the “Fluorescence competitive binding assay, OBP2 (raw fluorescence reading)” value (SfurOBP2; ligand concentration 4 (unit not given), replicate column 3 of 3) was 24844. The “Fluorescence competitive binding assay, OBP2 (raw fluorescence reading)” value (SfurOBP2; ligand concentration 6 (unit not given), replicate column 1 of 3) was 22191, the “Fluorescence competitive binding assay, OBP2 (raw fluorescence reading)” value (SfurOBP2; ligand concentration 6 (unit not given), replicate column 2 of 3) was 22417 and the “Fluorescence competitive binding assay, OBP2 (raw fluorescence reading)” value (SfurOBP2; ligand concentration 6 (unit not given), replicate column 3 of 3) was 22519. For the same compound, the “Fluorescence competitive binding assay, OBP2 (raw fluorescence reading)” value (SfurOBP2; ligand concentration 8 (unit not given), replicate column 1 of 3) was 23158, the “Fluorescence competitive binding assay, OBP2 (raw fluorescence reading)” value (SfurOBP2; ligand concentration 8 (unit not given), replicate column 2 of 3) was 21663 and the “Fluorescence competitive binding assay, OBP2 (raw fluorescence reading)” value (SfurOBP2; ligand concentration 8 (unit not given), replicate column 3 of 3) was 20781. The “Fluorescence competitive binding assay, OBP2 (raw fluorescence reading)” value (SfurOBP2; ligand concentration 10 (unit not given), replicate column 1 of 3) was 20596, the “Fluorescence competitive binding assay, OBP2 (raw fluorescence reading)” value (SfurOBP2; ligand concentration 10 (unit not given), replicate column 2 of 3) was 20292 and the “Fluorescence competitive binding assay, OBP2 (raw fluorescence reading)” value (SfurOBP2; ligand concentration 10 (unit not given), replicate column 3 of 3) was 20233. For the same compound, the “Fluorescence competitive binding assay, OBP2 (raw fluorescence reading)” value (SfurOBP2; ligand concentration 12 (unit not given), replicate column 1 of 3) was 19697, the “Fluorescence competitive binding assay, OBP2 (raw fluorescence reading)” value (SfurOBP2; ligand concentration 12 (unit not given), replicate column 2 of 3) was 18134 and the “Fluorescence competitive binding assay, OBP2 (raw fluorescence reading)” value (SfurOBP2; ligand concentration 12 (unit not given), replicate column 3 of 3) was 19454. The “Fluorescence competitive binding assay, OBP2 (raw fluorescence reading)” value (SfurOBP2; ligand concentration 14 (unit not given), replicate column 1 of 3) was 17572, the “Fluorescence competitive binding assay, OBP2 (raw fluorescence reading)” value (SfurOBP2; ligand concentration 14 (unit not given), replicate column 2 of 3) was 18013 and the “Fluorescence competitive binding assay, OBP2 (raw fluorescence reading)” value (SfurOBP2; ligand concentration 14 (unit not given), replicate column 3 of 3) was 17420. The “Fluorescence competitive binding assay, OBP2 (raw fluorescence reading)” value (SfurOBP2; ligand concentration 16 (unit not given), replicate column 1 of 3) was 16408, the “Fluorescence competitive binding assay, OBP2 (raw fluorescence reading)” value (SfurOBP2; ligand concentration 16 (unit not given), replicate column 2 of 3) was 15544 and the “Fluorescence competitive binding assay, OBP2 (raw fluorescence reading)” value (SfurOBP2; ligand concentration 16 (unit not given), replicate column 3 of 3) was 15169. The “Fluorescence competitive binding assay, OBP2 (raw fluorescence reading)” value (SfurOBP2; ligand concentration 18 (unit not given), replicate column 1 of 3) was 18334, the “Fluorescence competitive binding assay, OBP2 (raw fluorescence reading)” value (SfurOBP2; ligand concentration 18 (unit not given), replicate column 2 of 3) was 23371 and the “Fluorescence competitive binding assay, OBP2 (raw fluorescence reading)” value (SfurOBP2; ligand concentration 18 (unit not given), replicate column 3 of 3) was 18960. The “Fluorescence competitive binding assay, OBP2 (raw fluorescence reading)” value (SfurOBP2; ligand concentration 20 (unit not given), replicate column 1 of 3) was 17296, the “Fluorescence competitive binding assay, OBP2 (raw fluorescence reading)” value (SfurOBP2; ligand concentration 20 (unit not given), replicate column 2 of 3) was 16882 and the “Fluorescence competitive binding assay, OBP2 (raw fluorescence reading)” value (SfurOBP2; ligand concentration 20 (unit not given), replicate column 3 of 3) was 15413.
